Key:
[1] = system: EBC1; experiment: Inhibition of cell viability (MTS), EBC1; assay type: cell-based; settings: Homo sapiens, 96 hours incubation
Description: (§1) Cells were maintained at 37° C. in a humidified atmosphere containing 5%-8% CO2 following the instructions of the supplier (American Type Culture Collection (Rockville, Md.)). Inhibition of cell viability was determined for a panel of tumor cell lines (MKN45, EBC1 and A549), using the soluble tetrazolium salt, MTS (Promega, Madison, Wis.). Cells were seeded at 2,000-7,500 cells/well in 96-well tissue culture plates and were allowed to attach for approximately 24 hours prior to addition of compounds or DMSO vehicle. […] Cells were treated in duplicate with test compounds. Compounds were serially diluted (1:2.5) from column 1 to 11 and column 12 contained DMSO vehicle. Compounds were diluted into cell growth medium then compound solution was added to cells. Equal amounts of DMSO were added to cells (final concentration is 0.5%). After background correction and normalization against DMSO-treated cells, EC50 values were calculated using non-linear curve-fitting of the cell viability as a function of compound concentration. The MKN45 and EBC1 cell lines contain high levels of phospho-Met and are dependent on cMET for proliferation, whereas the A549 line is used as negative control.
(§2) EC50 values may be calculated by non-linear curve fitting of the compound concentrations and fluorescence intensities to the standard EC50 equation.

[2] = system: MKN45; experiment: Inhibition of cell viability (MTS), MKN45; assay type: cell-based; settings: Homo sapiens, 96 hours incubation
Description: as §1, §2

[3] = target: T1, cMET enzyme (amino acids 1023-1360) (Homo sapiens, UniProt P08581); experiment: Determination of inhibition of cMET (capillary electrophoresis, phosphorylated peptide product); assay type: biochemical; settings: 1.2 nM cMET, 50 μM ATP, 2 μM FL-2 peptide, 2 hours room temperature
T1 construct: The cMET enzyme (amino acids 1023-1360) nominally at 24 μM was held at −80° C. until use; His tag (N, cleaved yes); made in house; host or cells: Sf9 cells
T1 sequence (P08581 1023-1360): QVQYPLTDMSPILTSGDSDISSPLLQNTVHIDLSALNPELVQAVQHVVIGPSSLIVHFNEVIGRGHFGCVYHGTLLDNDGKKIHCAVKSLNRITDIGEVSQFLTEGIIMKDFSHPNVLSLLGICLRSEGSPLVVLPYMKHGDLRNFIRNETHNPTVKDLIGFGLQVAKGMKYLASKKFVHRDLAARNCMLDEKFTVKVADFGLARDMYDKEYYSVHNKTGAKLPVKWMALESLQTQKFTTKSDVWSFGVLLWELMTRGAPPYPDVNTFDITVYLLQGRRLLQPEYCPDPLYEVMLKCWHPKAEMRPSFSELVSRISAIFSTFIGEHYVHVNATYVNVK
Description: The inhibitory property of a compound relative to cMET catalysis was determined by use of capillary electrophoresis with fluorescence quantification of a phosphorylated peptide product for cMET. The cMET enzyme (amino acids 1023-1360) nominally at 24 μM was held at −80° C. until use, in a buffer containing 25 mM Tris-HCl pH 8.5, 150 mM NaCl, 3 mM DTT and 10% glycerol. […] Following purification, the tag was removed and enzyme concentrated. […] To activate the enzyme fully, frozen cMET was thawed quickly and activated with the addition of assay buffer (50 mM HEPES pH 7.5, 10 mM NaCl, 10 mM MgCl2, 0.01% Brij® 35), 1.25 mM ATP, 5 mM MgCl2 and 5 mM DTT at a cMET concentration of 2.4 μM followed by a 30 minute incubation at room temperature. […] Next, cMET enzyme (1.2 nM final) was added and the system incubated at room temperature for 20 minutes. Catalysis was initiated by the addition of ATP (50 μM final). Assays were incubated at room temperature for 2 hours then quenched by the addition of EDTA. Phosphorylated peptide product was quantified by monitoring fluorescence during capillary electrophoresis with Caliper LifeSciences LabChip 3000 under the following settings: base pressure=−0.1 psi, screen pressure=−1.2 psi, downstream voltage=−500 V, upstream voltage=−2300 V, chip type=TC372. The elution buffer was identical to the assay buffer except for the absence of DTT, FL-2 and ATP and the addition of 0.1% coating reagent (Caliper). […] Peak height was quantified and used to determine enzyme velocities.
IC50 values were calculated by non-linear least squares curve fitting of the standard IC50 equation to background-corrected cMET velocity versus compound concentration.

[4] = system: A549; experiment: Inhibition of cell viability (MTS), A549 (negative control line); assay type: cell-based; settings: Homo sapiens, A549 cells (negative control), 96 hours incubation
Description: as §1, §2

SMILES | EC50 ([2]; MKN-45, 96 h, MKN45 cells) | IC50 [3] | EC50 ([4]; A549, 96 h) | EC50 ([1]; EBC-1, 96 h, EBC1 cells) | EC50 ([1]; EBC-1, EBC1 cells) | EC50 ([2]; MKN-45, MKN45 cells) | EC50 [4]
O=C(Nc1cn2nc(Sc3nnc4ccc(Br)cn34)ccc2n1)C1CC1 [Compound 4, N-(6-(6-bromo-[1,2,4]triazolo[4,3-a]pyridin-3-ylthio)imidazo[1,2-b]pyridazin-2-yl)cyclopropanecarboxamide] | 100 to 249 nM | 30 to 59 nM | > 50 µM | < 35 nM | – | – | –
Cn1cc(-c2ccc3nnc(Sc4ccc5nc(NC(=O)C6CC6)cn5n4)n3c2)cn1 [Compound 5, N-(6-(6-(1-methyl-1H-pyrazol-4-yl)-[1,2,4]triazolo[4,3-a]pyridin-3-ylthio)-imidazo[1,2-b]pyridazin-2-yl)cyclopropanecarboxamide] | < 100 nM | < 30 nM | > 50 µM | < 35 nM | – | – | –
N#Cc1ccc2nnc(Sc3ccc4nc(NC(=O)C5CC5)cn4n3)n2c1 [Compound 6, N-(6-(6-cyano-[1,2,4]triazolo[4,3-a]pyridin-3-ylthio)imidazo[1,2-b]pyridazin-2-yl)cyclopropanecarboxamide] | – | > 100 nM | – | – | > 200 nM | > 630 nM | > 50 µM
O=C(Nc1cn2nc(Sc3nnc4ccc(Cl)cn34)ccc2n1)C1CC1 [Compound 9, N-(6-(6-chloro-[1,2,4]triazolo[4,3-a]pyridin-3-ylthio)imidazo[1,2-b]pyridazin-2-yl)cyclopropanecarboxamide] | 250 to 630 nM | 60 to 100 nM | 8 to 25 µM | 100 to 199 nM | – | – | –
O=C(Nc1cn2nc(Cn3nnc4ccc(-c5cnn(C[C@H](O)CO)c5)cc43)ccc2n1)C1CC1 [Compound 22] | > 630 nM | 60 to 100 nM | > 50 µM | > 200 nM | – | – | –
O=C(Nc1cn2nc(Cn3nnc4ccc(-c5cnn(C[C@@H](O)CO)c5)cc43)ccc2n1)C1CC1 [Compound 23] | 250 to 630 nM | 30 to 59 nM | > 50 µM | 100 to 199 nM | – | – | –
C=C(C)c1ccc2nnc(Sc3ccc4nc(NC(=O)C5CC5)cn4n3)n2c1 [Compound 25, N-(6-(6-(prop-1-en-2-yl)-[1,2,4]triazolo[4,3-a]pyridin-3-ylthio)imidazo[1,2-b]pyridazin-2-yl)cyclopropanecarboxamide] | < 100 nM | < 30 nM | 8 to 25 µM | < 35 nM | – | – | –
CC(C)c1ccc2nnc(Sc3ccc4nc(NC(=O)C5CC5)cn4n3)n2c1 [Compound 26, N-(6-(6-isopropyl-[1,2,4]triazolo[4,3-a]pyridin-3-ylthio)imidazo[1,2-b]pyridazin-2-yl)cyclopropanecarboxamide] | < 100 nM | < 30 nM | > 19.5 µM | < 35 nM | – | – | –
O=C(NCCO)Nc1cn2nc(Sc3nnc4ccc(-c5cccc(F)c5)cn34)ccc2n1 [Compound 27, 1-(6-(6-(3-fluorophenyl)-[1,2,4]triazolo[4,3-a]pyridin-3-ylthio)imidazo[1,2-b]pyridazin-2-yl)-3-(2-hydroxyethyl)urea] | – | < 30 nM | – | – | 35 to 99 nM | < 100 nM | > 50 µM
CNC(=O)c1ccc(-c2ccc3nnc(Sc4ccc5nc(NC(=O)C6CC6)cn5n4)n3c2)cc1Cl [Compound 28, 2-chloro-4-(3-(2-(cyclopropanecarboxamido)imidazo[1,2-b]pyridazin-6-ylthio)-[1,2,4]triazolo[4,3-a]pyridin-6-yl)-N-methylbenzamide] | < 100 nM | < 30 nM | > 50 µM | < 35 nM | – | – | –
COCCOCn1cc(-c2ccc3nnc(Sc4ccc5nc(NC(=O)C6CC6)cn5n4)n3c2)cn1 [Compound 29, N-(6-(6-(1-((2-methoxyethoxy)methyl)-1H-pyrazol-4-yl)-[1,2,4]triazolo[4,3-a]pyridin-3-ylthio)imidazo[1,2-b]pyridazin-2-yl)cyclopropanecarboxamide] | – | 60 to 100 nM | – | – | 35 to 99 nM | < 100 nM | > 50 µM
CN(C)C(=O)Cn1cc(-c2ccc3nnc(Sc4ccc5nc(NC(=O)C6CC6)cn5n4)n3c2)cn1 [Compound 30, N-(6-(6-(1-(2-(dimethylamino)-2-oxoethyl)-1H-pyrazol-4-yl)-[1,2,4]triazolo[4,3-a]pyridin-3-ylthio)imidazo[1,2-b]pyridazin-2-yl)cyclopropanecarboxamide] | > 630 nM | 30 to 59 nM | > 19.5 µM | > 200 nM | – | – | –

The next lines start with results.

EC50 ([2]; MKN-45, 96 h, MKN45 cells) | IC50 [3] | EC50 ([4]; A549, 96 h) | SMILES | EC50 ([1]; EBC-1, 96 h, EBC1 cells) | EC50 ([1]; EBC-1, EBC1 cells) | EC50 ([2]; MKN-45, MKN45 cells) | EC50 [4]
> 630 nM | > 100 nM | > 50 µM | Cc1ccc2nnn(Cc3ccc4nc(NC(=O)C5CC5)cn4n3)c2c1 [Compound 12, N-(6-((6-methyl-1H-benzo[d][1,2,3]triazol-1-yl)methyl)imidazo[1,2-b]pyridazin-2-yl)cyclopropanecarboxamide] | > 200 nM | – | – | –
250 to 630 nM | 30 to 59 nM | 0.6 to 1.6 µM | O=C(Nc1cn2nc(Cn3nnc4ccc(-c5cccc(F)c5)cc43)ccc2n1)C1CC1 [Compound 14] | 100 to 199 nM | – | – | –
250 to 630 nM | 60 to 100 nM | 8 to 25 µM | O=C(Nc1cn2nc(Cn3nnc4ccc(-c5ccccc5)cc43)ccc2n1)C1CC1 [Compound 15] | 100 to 199 nM | – | – | –
> 630 nM | > 100 nM | > 50 µM | O=C(Nc1cn2nc(Cn3nnc4ccc(-c5cccnc5)cc43)ccc2n1)C1CC1 [Compound 16] | > 200 nM | – | – | –
< 100 nM | 60 to 100 nM | > 19.5 µM | CS(=O)(=O)c1ccc(-c2ccc3nnn(Cc4ccc5nc(NC(=O)C6CC6)cn5n4)c3c2)cc1 [Compound 17] | < 35 nM | – | – | –
100 to 249 nM | 30 to 59 nM | > 19.5 µM | CCS(=O)(=O)c1cccc(-c2ccc3nnn(Cc4ccc5nc(NC(=O)C6CC6)cn5n4)c3c2)c1 [Compound 18] | 100 to 199 nM | – | – | –
250 to 630 nM | 60 to 100 nM | > 19.5 µM | COc1cncc(-c2ccc3nnn(Cc4ccc5nc(NC(=O)C6CC6)cn5n4)c3c2)c1 [Compound 19] | 100 to 199 nM | – | – | –
250 to 630 nM | 60 to 100 nM | > 50 µM | Cc1n[nH]c(C)c1-c1ccc2nnn(Cc3ccc4nc(NC(=O)C5CC5)cn4n3)c2c1 [Compound 20] | > 200 nM | – | – | –
> 630 nM | > 100 nM | > 50 µM | CS(=O)(=O)c1cncc(-c2ccc3nnn(Cc4ccc5nc(NC(=O)C6CC6)cn5n4)c3c2)c1 [Compound 21] | > 200 nM | – | – | –
100 to 249 nM | 60 to 100 nM | > 50 µM | O=C(Nc1cn2nc(Cn3nnc4ccc(-c5cnn(CCO)c5)cc43)ccc2n1)C1CC1 [Compound 24] | 35 to 99 nM | – | – | –
